Earlier results, collected in patent publication EP0700285B1, “A DRUG DELIVERY COMPOSITION FOR ALPHA-ADRENO RECEPTOR BLOCKING AGENTS” (SYNTHELABO, priority 1993, dated 1994).

COc1cc2nc(N(C)CCCNC(=O)C3CCCO3)nc(N)c2cc1OC (centres unmarked) [alfuzosin]
plasma elimination half life (mean) (after intravenous administration): 4.8 h | mean half life (after oral administration): 4.8 h | mean oral bioavailability (immediate release dosage form): 64% | parent compound excreted unchanged in the urine (in vivo): 11% | volume of distribution (in vivo): 2.5 L/kg
